The test system of assay [1] is B16. In words: Antimelanogenic activity at alpha-MSH-stimulated mouse melanoma B16 cells at 10 uM after 3 days by spectrophotometry. The assay is classed as functional. Conditions: B16, 72 h.
Assay [2] has as its system B16. In words: Antimelanogenic activity at alpha-MSH-stimulated mouse melanoma B16 cells after 3 days by spectrophotometry. Particulars: B16, 72 h. The assay is classed as functional, cell-based.

Bounds are passed on as bounds.

In general, inhibition refers to the relative decrease from the control value, in per cent. A higher inhibition goes with a response far below the control. Usually IC50 stands for the concentration that gives 50% inhibition. Lower therefore signals greater potency in that assay.

For `S=C(N/N=C/c1cccc2ccccc12)Nc1ccc(Cl)cc1`, the inhibition at 10 µM with B16 [1] is over 100%. Besides, the concentration for half-maximal inhibition (IC50) in the assay on B16 [2] turned out to be 1.9 µM.
The compound `NC(=O)N/N=C/c1cccc2ccccc12` showed an inhibition at 10 µM in the assay on B16 [1] of under 10%. This compound also registered an IC50 in the assay with B16 [2] of over 100 µM.
In the same order, the values of `CN(/N=C/c1cccc2ccccc12)C(N)=S` are over 100% and 1.6 µM.
On the same counts, the results for `S=C(N/N=C/c1cccc2ccccc12)NC1CCCCC1` are over 100% and 0.29 µM.
The compound `CN(C)C(=S)N/N=C/c1cccc2ccccc12` registered an inhibition at 10 µM in the assay with B16 [1] of over 100%. In the assay on B16 [2], this compound displayed an IC50 of 0.28 µM.
On the same counts, the results for `S=C(N/N=C/c1cccc2ccccc12)Nc1ccccc1` are over 100% and 0.5 µM.
As to `COc1cccc(NC(=S)N/N=C/c2cccc3ccccc23)c1`, in the assay on B16 [1], the inhibition at 10 µM was over 100%. This compound also gave an IC50 in the assay on B16 [2] of 0.83 µM.
With `CCNC(=S)N/N=C/c1cccc2ccccc12`, the inhibition at 10 µM in the assay with B16 [1] is over 100%. Besides, 1.1 µM corresponded to half-maximal inhibition in the assay with B16 [2] (IC50).
As for `Cc1ccccc1NC(=S)N/N=C/c1cccc2ccccc12`, the inhibition at 10 µM in the assay on B16 [1] is over 100%. Further, in the assay with B16 [2], the IC50 was 0.49 µM.
On to `S=C(NCc1ccccc1)N/N=C/c1cccc2ccccc12`, for which the inhibition at 10 µM in the assay with B16 [1] was over 100%. The compound also gave an IC50 with B16 [2] of 0.27 µM.
For the compound `COc1ccccc1NC(=S)N/N=C/c1cccc2ccccc12`, in the assay with B16 [1], the inhibition at 10 µM was over 100%. Moreover, in the assay with B16 [2], the midpoint of inhibition, the IC50, lay at 0.92 µM.
In the assay on B16 [1], `COc1ccc(NC(=S)N/N=C/c2cccc3ccccc23)cc1` gave an inhibition at 10 µM of over 100%. The compound also came in with a concentration for half-maximal inhibition (IC50) with B16 [2] of 0.86 µM.
`Cc1ccc(NC(=S)N/N=C/c2cccc3ccccc23)cc1`: the inhibition at 10 µM in the assay on B16 [1] is over 100%. The same compound returned an IC50 with B16 [2] of 0.58 µM.
In the same order, the values of `Cc1cccc(NC(=S)N/N=C/c2cccc3ccccc23)c1` are over 100% and 0.45 µM.
On the same counts, the results for `CN(C)C(=S)N(C)/N=C/c1cccc2ccccc12` are 76% and 8.6 µM.
In the same order, the values of `CNC(=S)N/N=C/c1cccc2ccccc12` are over 100% and 2 µM.

The record behind these values is ChEMBL document CHEMBL1938368, “Structure-activity relationship of naphthaldehydethiosemicarbazones in melanogenesis inhibition” (Bioorg Med Chem Lett, 2012).
